Reference: patent US20060251617A1, “Methods for treating lymphomas” (Chiron Corporation, priority 2005, published 2006)

Assays:
[1] = tested on: human B-cell lymphoma (Daudi) xenograft; assay: Daudi xenograft model: IL-2 with CHOP and individual CHOP constituents (Example 2); assay type: in vivo, BALB/c nude mice; settings: for Median Tumor Growth delay / Response rate (CR/PR): CR / Response rate (CR/PR): PR: Table 9, n = 10-20 mice/group; for CR/PR on day 28: CR: number of mice with complete response; for CR/PR on day 28: PR: number of mice with partial response; for Group Mean Days of Delay to 1000 mm^3: vs. control group
Description: (§1) Passaged, clonally derived Daudi cells (5×10^6 cells/mouse) were reconstituted with 50% Matrigel (BD Biosciences) in a total volume of 0.1 ml and implanted subcutaneously into the right flank of irradiated (3Gy) BALB/c nude mice. Treatments were initiated when the mean tumor volume was 150-300 mm^3. Mice were randomly assigned typically into 10 mice per group. […] Tumor volume is measured using calipers. Caliper measurements of tumors were converted into tumor volume (mm^3) using the formula: ½ (length (mm)×[width (mm)]^2). Tumor growth inhibition (TGI) was calculated as [1−(mean tumor volume of treated group/mean tumor volume of control group)×100]. […] Tumor growth delay (TGD) analysis was calculated as: [(number of days for a treated group to reach a mean tumor volume of 1000 mm^3)−(number of days for the control group to reach a mean tumor volume of 1000 mm^3)]. Percent conditional survival is the percent of mice in each group in which the tumor volume has not reached 1000 mm^3.
Athymic nude BALB/c mice (10 mice/group) were acclimated and irradiated mice were implanted with Daudi cells as described above. Treatment started when tumors were approximately 140 mm^3. This was designated study day 1.
Treatment groups were as follows:
Doxorubicin (H, adriamycin), 3.3 mg/kg, i.v, day 1;
Vincristine (O), 0.5 mg/kg, i.v, day 1;
Prednisone (P), 0.2 mg/kg p.o, days 1-5;
Proleukin® (IL-2), 1 mg/kg; s.c., thrice weekly for 4 weeks, total 12 doses;
Proleukin® (IL-2)+individual chemotherapeutics (as dosed individually, started on day 1);
Proleukin® (IL-2)+CHOP (similar dosing regimens to single agents, started on day 1).

[2] = tested on: Daudi lymphoma tumor model; assay: Pooled Daudi xenograft studies and assessment of synergistic activity (Example 5); assay type: in vivo, BALB/c nude mice; settings: pooled studies; for Tumor response CR / Tumor response PR: number of mice, (n) in cell; for Tumor response RR: response rate; for TGI: vs. vehicle
Description: as §1
(§2) Multiple comparisons were performed using one-way analysis of variance (ANOVA); post-test to compare different treatment means was done using Student-Newman Keuls test (SigmaStat). Tumor growth delay for each animal (time to 1000 mm^3) was used as the endpoint for conditional survival, and significance between treatments was analysed using a log rank test (Prism). Mice that had no visible tumors at necropsy upon termination of the study were considered censored in this analysis. Differences were considered statistically significant at p<0.05.
Several studies of these agents and combinations of these agents were performed in the Daudi lymphoma tumor model. The data from these multiple experiments were then pooled together for further analysis (Table 10). In vivo drug synergy was evaluated from the response index of combination treatments using multiple drug effect analyses.

[3] = tested on: human B-cell lymphoma (Daudi) xenograft; assay: Daudi xenograft model of human B-cell lymphoma: IL-2/CHOP/rituximab regimens (Example 1); assay type: in vivo, BALB/c nude mice
Description: as §1, §2
See, e.g., Hudson et al., Leukemia (1998) 12:2029-2033 for a description of the Daudi xenograft model. The Daudi/BALB/c nude model expresses high levels of CD20 and is associated with a less aggressive/low grade disease profile. Furthermore, NK cells cannot lyse Daudi tumor cells in the absence of activation by cytokines such as IL-2. See, e.g., Damle et al., J. Immunol. (1987) 138:1779-1785.
120 athymic nude BALB/c mice were acclimated for 1 week to the inoculation of Daudi human B-cell lines. Daudi cells (5×10^6 cells/mouse) were implanted s.c. (right flank) into irradiated young nude mice (3Gy for approximately 3.2 minutes) with 50% matrigel at a volume of 0.1 ml and grown as subcutaneous tumors until tumor volume reached 110 mm^3. This was designated study day 1.
Clinical observations were noted.

[4] = mouse, in vivo
Description: (§3) Proleukin® treatment (1 mg/kg; s.c., thrice weekly) commenced either concomitantly (on day 8) or one week later (day 15) for a total of 4 weeks. […] Tumor volumes and body weights were measured two times per week. Clinical observations were noted.

[5] = Body weight, clinical observations and tolerability in Daudi tumor-bearing mice; settings: Example 5
Description: as §3

C[C@]12C=CC(=O)C=C1CC[C@@H]1[C@@H]2C(=O)C[C@@]2(C)[C@H]1CC[C@]2(O)C(=O)CO [Prednisone]
Median Tumor Growth delay [1]: 2 days | Response rate (CR/PR): CR [1]: 1 | Response rate (CR/PR): PR [1]: 0 | CR/PR on day 28: CR [1]: 1 | CR/PR on day 28: PR [1]: 0 | Group Mean Days of Delay to 1000 mm^3 [1]: 2 days | Growth delay [2]: 2 days | Tumor response CR [2]: 1 | Tumor response PR [2]: 0 | Tumor response RR [2]: 10% | TGI [2]: 10%, p > 0.05

O=P1(N(CCCl)CCCl)NCCCO1 (stereo not drawn) [Cyclophosphamide, cyclophosphamide]
Median Tumor Growth delay [1]: 1 days | Response rate (CR/PR): CR [1]: 0/0 | Response rate (CR/PR): PR [1]: 0/0 | CR/PR on day 28: CR [1]: 0/0 | CR/PR on day 28: PR [1]: 0/0 | Group Mean Days of Delay to 1000 mm^3 [1]: 1 days | Growth delay [2]: 1 days | Tumor response CR [2]: 0%; 0/0 (10) | Tumor response PR [2]: 0%; 0/0 (10) | Tumor response RR [2]: 0%; 0/0 (10) | TGI [2]: 2%, p > 0.05

CC[C@]1(O)C[C@H]2CN(CCc3c([nH]c4ccccc34)[C@@](C(=O)OC)(c3cc4c(cc3OC)N(C=O)[C@H]3[C@@](O)(C(=O)OC)[C@H](OC(C)=O)[C@]5(CC)C=CCN6CC[C@]43[C@@H]65)C2)C1 [Vincristine]
Median Tumor Growth delay [1]: 12 days | Response rate (CR/PR): CR [1]: 0/0 | Response rate (CR/PR): PR [1]: 0/0 | CR/PR on day 28: CR [1]: 0/0 | CR/PR on day 28: PR [1]: 0/0 | Group Mean Days of Delay to 1000 mm^3 [1]: 12 days | Growth delay [2]: 12 days | Tumor response CR [2]: 0%; 0/0 (10) | Tumor response PR [2]: 0%; 0/0 (10) | Tumor response RR [2]: 0%; 0/0 (10)

des-alanyl-1, serine-125 human interleukin-2 [IL-2]
CR/PR day 29: CR ([3]; mouse, in vivo): 0/0 | CR/PR day 29: PR ([3]; mouse, in vivo): 0/0 | CR/PR day 164: CR ([3]; mouse, in vivo): 1/0 | CR/PR day 164: PR ([3]; mouse, in vivo): 1/0 | tumor growth / efficacy in words ([3]; mouse, in vivo): significantly inhibited tumor growth | median conditional survival (days to 1000 mm3) ([3]; time for tumor to reach 1000 mm3): 25 days | TGI day 29 ([3]; tumor growth inhibition vs. vehicle, day 29, n = 10): 33.52% | Median Tumor Growth delay [1]: 2 days | Response rate (CR/PR): CR [1]: 0/0 | Response rate (CR/PR): PR [1]: 0/0 | CR/PR on day 28: CR [1]: 0/0 | CR/PR on day 28: PR [1]: 0/0 | Group Mean Days of Delay to 1000 mm^3 [1]: 2 days | Growth delay [2]: 2 days | Tumor response CR [2]: 2 | Tumor response PR [2]: 1 | Tumor response RR [2]: 5% | % max BW. change (day, range) [4]: 12(+8 to +14) day 39% | Clinical Observation [4]: BAR | tolerability [5]: well-tolerated

COc1cccc2c1C(=O)c1c(O)c3c(c(O)c1C2=O)C[C@@](O)(C(=O)CO)C[C@@H]3O[C@H]1C[C@H](N)[C@H](O)[C@H](C)O1 [Doxorubicin]
Median Tumor Growth delay [1]: 2 days | Response rate (CR/PR): CR [1]: 0/0 | Response rate (CR/PR): PR [1]: 0/0 | CR/PR on day 28: CR [1]: 0/0 | CR/PR on day 28: PR [1]: 0/0 | Group Mean Days of Delay to 1000 mm^3 [1]: 2 days | Growth delay [2]: 2 days | Tumor response CR [2]: 0%; 0/0 (10) | Tumor response PR [2]: 0%; 0/0 (10) | Tumor response RR [2]: 0%; 0/0 (10) | TGI [2]: 9%, p > 0.05
